Data from patent publication US5516790A, “Synthesis and application of alkyl-substituted dibenzofurans as antitumorigenic agents” (Texas A&M University System Technology Licensing Office, priority 1994, dated 1996).
Read-outs that look alike come from different tables or passages of the source.

Tests used:
female rat uterus = assay: Antiestrogenic effect on uterine wet weight, immature female Sprague-Dawley rats (Example 8); type: in vivo; conditions: run A
[1] = tested on: progesterone receptor (PR); assay: Uterine progesterone receptor levels, hydroxyapatite assay (Example 8); type: in vivo, female Sprague-Dawley rats; conditions: run A
Method: The animals were terminated by cervical dislocation. Livers were perfused with ice-cold TEDG buffer (10 mM Tris-HCl, 1.5 mM EDTA-4Na, 1 mM dithiothreitol, 10% glycerol (v/v), pH 7.4). Following perfusion in situ, livers were removed, weighed, and homogenized in ice-cold TEDG buffer. Uteri were also removed, weighed, and homogenized in ice-cold buffer. The homogenates were then centrifuged at 800×g ([…]) for 15 minutes and the nuclear pellets were stored at -80° C. The supernatants were further centrifuged at 180,000× g for 1.5 hours. The cytosolic supernatant was also stored at -80° C. Estrogen and progesterone receptor levels were determined within 7 days.
Estrogen (ER) and progesterone (PR) receptor levels were determined by the hydroxyapatite assay as described by Clark et al. (J. Steroid Biochem. 16:323-328, 1982) and incorporated herein by reference. […] Following the incubations, samples were counted and specific binding was calculated by subtraction of nonspecific from total binding. Assuming one steroid molecule binds to one estrogen/progesterone receptor, the number of moles of receptor can be calculated given the specific activity of the radioligand. The data presented in Tables 1 through 6 are means ± SD using at least four animals per treatment group. Significant differences were determined by analysis of variance.

nuclear ER = assay: Nuclear ER levels in MCF-7 cells; type: cell-based, human; conditions: for nuclear ER levels: TCDD (10 nM), MCDF (100 nM)
Method: MCF-7 cells, obtained from American Type Culture Collection (Rockville, Ma.), were maintained at 37° C. in closed Corning T-25, 75 or 150 cm^2 flasks (Corning Glassworks, Corning, N.Y.) and passaged in logarithmic growth phase.
For the 2,3,7,8-TCDD antiestrogenicity studies, cells were treated 24 hours prior to harvesting with various concentrations of 2,3,7,8-TCDD (0.1 nM to 100 nM 2,3,7,8-TCDD). Interactive effects between 2,3,7,8-TCDD and estradiol were conducted using these same concentrations of 2,3,7,8-TCDD and 10 nM estradiol. […]
MCF-7 cells from a single near confluent T-25 flask were incubated at 37° C. for 0.5 hours prior to harvesting with 10 nM 2,4,6,7-[^3H]-estradiol. The medium was then decanted and the cells were rinsed once with Hanks' balanced salt solution containing 1 mM EDTA. The cells were collected by centrifugation, washed gently in 2 ml of TEDG buffer and homogenized in 300 μl of TEDG buffer containing protease inhibitors [soybean trypsin inhibitor 5 mg/ml (Sigma), leupetin 1 mg/ml (Sigma), and phenylmethylsulfonyl fluoride 1 mg/ml (Sigma) by 40 strokes of a Dounce homogenizer. The homogenate was centrifuged at 800×g for 10 minutes. The crude nuclear pellet was resuspended in 300 μl of TEDGK buffer (10 mM Tris-HCl, 1.5 mM EDTA-4Na, 10 mM dithiothreitol, 10% (v/v) glycerol, 0.8 M KCl, pH 8.5 at 4° C.). The nuclear ER levels were then determined as described below.
The nuclear extract previously obtained was incubated with 10 nM [^3 H]-estradiol plus or minus radioinert diethylstilbestrol for 1 hour at 0-4° C., with resuspension by agitation every 15 minutes. The sample was then centrifuged at 180,000×g for 30 minutes, then 200 μl of the supernatant obtained was layered onto linear 1-20% sucrose gradients prepared in TEDGMK buffer. As before, the gradients were centrifuged at 406,000×g for 2.5 hours in a vertical rotor. Following centrifugation, 30 fractions of […] were collected and the radioactivity in each sample was determined.

[2] = tested on: MCF-7 human breast cancer cells; assay: Growth of MCF-7 human breast cancer cells; type: cell-based; conditions: MCDF
AHH and EROD induction = assay: TCDD antagonism / Ah receptor agonist activity (AHH and EROD induction)
Ah receptor = assay: Binding affinity for the Ah receptor
estrogen receptor [3] = assay: Uterine and hepatic estrogen receptor levels (literature); type: in vivo, rat; conditions: in comparison to control test animals, rats and mice
uterus [4] = assay: Uterine wet weight / uterotrophic effects (literature, summary); type: in vivo, rat; conditions: rats, in comparison to control
34-kDa protein = conditions: Biegel and Safe, 1990; cited from earlier work
52-kDa protein = conditions: Biegel and Safe, 1990; cited from earlier work
160-kDa protein = conditions: Biegel and Safe, 1990; cited from earlier work
EGF receptor = conditions: cited from earlier work
uterus [5] = conditions: cited from earlier work
Toxicity = conditions: in vivo
[6] = in vivo; cited from earlier work
estrogen receptor [7] = conditions: cited from earlier work
uterus [8] = conditions: weanling female C57BL/6 mice; cited from earlier work
uterus [9] = conditions: cited from earlier work; remark: listed apart in the source
[10] = tested on: tissue plasminogen activator; conditions: MCF-7 human breast cancer cells; cited from earlier work
[11] = tested on: mammary and uterine tumors; conditions: long term feeding studies; cited from earlier work
[12] = 150 μmol/kg + E-2 (2 × 10 μg/rat)
[13] = compound alone, 150 μmol/kg (17β-estradiol: 2 × 10 μg/rat)

Structure (SMILES): Cc1cc(Cl)cc2c1oc1cc(Cl)cc(Cl)c12 [MCDF, 6-methyl 1,3,8-trichlorodibenzofuran]
- Uterine Wet Weight (female rat uterus; [12]): 0.194 ± 0.023 % body wt
- Uterine Wet Weight (female rat uterus; [13]): 0.104 ± 0.004 % body wt
- Progesterone Receptor Levels, Cytosolic [1, 12]: 1203 ± 110 fmol/mg protein
- Progesterone Receptor Levels, Nuclear [1, 12]: 435 ± 91 fmol/mg protein
- Progesterone Receptor Levels, Cytosolic [1, 13]: 915 ± 63 fmol/mg protein
- Progesterone Receptor Levels, Nuclear [1, 13]: 312 ± 50 fmol/mg protein
- ERn (nuclear ER; 2,3,7,8-TCDD (10 nM) + MCDF (15 μM)): 147.5(9.6) fmol/mg protein
- ERn (nuclear ER; 2,3,7,8-TCDD (10 nM) + MCDF (50 μM)): 136.0(14.7) fmol/mg protein
- ERn (nuclear ER; 2,3,7,8-TCDD (10 nM) + MCDF (75 μM)): 133.1(10.4) fmol/mg protein
- ERn (nuclear ER; 2,3,7,8-TCDD (10 nM) + MCDF (100 μM)): 123.1(7.1) fmol/mg protein
- ERn (nuclear ER; 2,3,7,8-TCDD (10 nM) + MCDF (150 μM)): 129.3(2.9) fmol/mg protein
- ERn (nuclear ER; 2,3,7,8-TCDD (25 nM) + MCDF (15 μM)): 146.9(9.6) fmol/mg protein
- ERn (nuclear ER; 2,3,7,8-TCDD (25 nM) + MCDF (50 μM)): 85.5(16.5) fmol/mg protein
- ERn (nuclear ER; 2,3,7,8-TCDD (25 nM) + MCDF (75 μM)): 91.3(9.7) fmol/mg protein
- ERn (nuclear ER; 2,3,7,8-TCDD (25 nM) + MCDF (100 μM)): 100.5 (10.4) fmol/mg protein
- ERn (nuclear ER; 2,3,7,8-TCDD (25 nM) + MCDF (150 μM)): 108.1(18.1) fmol/mg protein
- ERn levels in MCF-7 cells (nuclear ER; MCDF): significantly decreased
- ERn (nuclear ER; MCDF alone (15 μM)): 207.5 (6.6) fmol/mg protein
- ERn (nuclear ER; MCDF alone (50 μM)): 171.6 (13.7) fmol/mg protein
- ERn (nuclear ER; MCDF alone (100 μM)): 135.8 (4.5) fmol/mg protein
- ERn (nuclear ER; MCDF alone (150 μM)): 114.2 (7.9) fmol/mg protein
- ERn levels, combined treatment vs either 2,3,7,8-TCDD or MCDF (nuclear ER; MCDF plus 2,3,7,8-TCDD): not significantly different
- combined effects on ERn levels in MCF-7 cells (nuclear ER; MCDF plus 2,3,7,8-TCDD): clearly not additive
- nuclear ER levels (nuclear ER): decrease in nuclear ER levels
- ERn (nuclear ER; alone (75 μM)): 141.8 (13.6) fmol/mg protein
- ERn (nuclear ER; estradiol (10 nM) + 2,3,7,8-TCDD (10 nM) plus MCDF (15 nM)): 133.1 (14.3) fmol/mg protein
- ERn (nuclear ER; estradiol (10 nM) + 2,3,7,8-TCDD (10 nM) plus MCDF (50 μM)): 122.3 (5.5) fmol/mg protein
- ERn (nuclear ER; estradiol (10 nM) + 2,3,7,8-TCDD (10 nM) plus MCDF (100 μM)): 125.5 (9.7) fmol/mg protein
- ERn (nuclear ER; estradiol (10 nM) + 2,3,7,8-TCDD (25 nM) plus MCDF (15 μM)): 132.6 (2.1) fmol/mg protein
- ERn (nuclear ER; estradiol (10 nM) + 2,3,7,8-TCDD (25 nM) plus MCDF (50 μM)): 130.5 (5.3) fmol/mg protein
- ERn (nuclear ER; estradiol (10 nM) + 2,3,7,8-TCDD (25 μM) plus MCDF (100 μM)): 123.8 (8.3) fmol/mg protein
- ERn (nuclear ER; estradiol (10 nM) + MCDF (15 μM)): 113.4 (3.9) fmol/mg protein
- ERn (nuclear ER; estradiol (10 nM) + MCDF (50 μM)): 103.4 (17.6) fmol/mg protein
- ERn (nuclear ER; estradiol (10 nM) + MCDF (100 μM)): 106.4 (7.9) fmol/mg protein
- 17β-estradiol-induced growth of MCF-7 cells [2]: inhibits
- agonist for Ah receptor mediated response (AHH and EROD induction): poor agonist
- Ah receptor binding activity (Ah receptor): relatively high
- nuclear and cytosolic hepatic and uterine estrogen receptors (estrogen receptor [3]): decreases
- uterine wet weights (uterus [4]): decreases
- 17β-estradiol-induced secretion of the 34-kDa protein (34-kDa protein): inhibits
- 17β-estradiol-induced secretion of the 52-kDa protein (52-kDa protein): inhibits
- 17β-estradiol-induced secretion of the 160-kDa protein (160-kDa protein): inhibits
- 17β-estradiol-induced increased EGF receptor binding and mRNA levels (EGF receptor): inhibits
- 17β-estradiol-induced increases in rat uterine wet weight (uterus [5]): active as an antiestrogen
- uterotrophic effects of 17β-estradiol (uterus [5]; rat, in vivo): inhibits
- toxicity (Toxicity): low toxicity
- toxicity of amounts giving antiestrogenic effects (Toxicity): nontoxic

Structure (SMILES): Clc1cc2c(cc1Cl)Oc1cc(Cl)c(Cl)cc1O2 [TCDD, 2,3,7,8-tetrachloridibenzo-p-dioxin]
- nuclear ER levels (nuclear ER): decrease in nuclear ER levels
- hepatocarcinogenicity [6]: so hepatocarcinogenic
- binding to the estrogen receptor (estrogen receptor [7]): does not bind
- uterine weights (uterus [8]): decreased
- estrogenic effects of 17β-estradiol on uterine weights (uterus [9]; TCDD with 17β-estradiol): partially blocked
- uterine weights (uterus [9]; female Long Evans rats): decreased
- estrogen mediated excretion of tissue plasminogen activator activity [10]: suppressed
- spontaneous development of mammary and uterine tumors [11]: significantly decreased
